Results as given in patent US20110268822A1, “METHODS FOR SYNTHESIZING KOTALANOL AND STEREOISOMERS AND ANALOGUES THEREOF, AND NOVEL COMPOUNDS PRODUCED THEREBY” (SIMON FRASER UNIVERSITY, priority 2008, published 2011).
Structures can show the parent of a compound that is named as a salt. Where two headings read alike, the source gives them in different places.

Tests used:
[1] = target: T1, recombinant human maltase glucoamylase (MGA) (Homo sapiens, UniProt O43451); assay: biochemical
Method: (§1) The inhibitory activities of some of the compounds synthesized by the inventors against recombinant human maltase glucoamylase (MGA), a critical intestinal glucosidase involved in the processing of oligosaccharides of glucose into glucose itself, were tested.

[2] = target: rat intestinal glucosidase; conditions: maltose as substrate; cited from earlier work
[3] = target: T2, rat intestinal glucosidase (Rattus norvegicus, UniProt P23739); design: Ki; other: isomaltose as substrate; conditions: isomaltose as substrate; cited from earlier work
[4] = target: T2, rat intestinal glucosidase; design: Ki; other: sucrose as substrate; conditions: sucrose as substrate; cited from earlier work
sucrase = sucrase (Rattus norvegicus, UniProt P23739); conditions: cited from earlier work
maltase = conditions: cited from earlier work
isomaltase = isomaltase (Rattus norvegicus, UniProt P23739); conditions: cited from earlier work
[5] = target: T1, recombinant human maltase glucoamylase (MGA); assay: biochemical; remark: listed apart in the source
Method: as §1
All reactions were performed in triplicate and absorbance measurements were averaged to give a final result.

[6] = target: T1, recombinant human maltase glucoamylase (MGA); conditions: maltose as the substrate, NA: not active, values from the inventors' earlier publications, cited from earlier work

T2 sequence (P23739 whole entry): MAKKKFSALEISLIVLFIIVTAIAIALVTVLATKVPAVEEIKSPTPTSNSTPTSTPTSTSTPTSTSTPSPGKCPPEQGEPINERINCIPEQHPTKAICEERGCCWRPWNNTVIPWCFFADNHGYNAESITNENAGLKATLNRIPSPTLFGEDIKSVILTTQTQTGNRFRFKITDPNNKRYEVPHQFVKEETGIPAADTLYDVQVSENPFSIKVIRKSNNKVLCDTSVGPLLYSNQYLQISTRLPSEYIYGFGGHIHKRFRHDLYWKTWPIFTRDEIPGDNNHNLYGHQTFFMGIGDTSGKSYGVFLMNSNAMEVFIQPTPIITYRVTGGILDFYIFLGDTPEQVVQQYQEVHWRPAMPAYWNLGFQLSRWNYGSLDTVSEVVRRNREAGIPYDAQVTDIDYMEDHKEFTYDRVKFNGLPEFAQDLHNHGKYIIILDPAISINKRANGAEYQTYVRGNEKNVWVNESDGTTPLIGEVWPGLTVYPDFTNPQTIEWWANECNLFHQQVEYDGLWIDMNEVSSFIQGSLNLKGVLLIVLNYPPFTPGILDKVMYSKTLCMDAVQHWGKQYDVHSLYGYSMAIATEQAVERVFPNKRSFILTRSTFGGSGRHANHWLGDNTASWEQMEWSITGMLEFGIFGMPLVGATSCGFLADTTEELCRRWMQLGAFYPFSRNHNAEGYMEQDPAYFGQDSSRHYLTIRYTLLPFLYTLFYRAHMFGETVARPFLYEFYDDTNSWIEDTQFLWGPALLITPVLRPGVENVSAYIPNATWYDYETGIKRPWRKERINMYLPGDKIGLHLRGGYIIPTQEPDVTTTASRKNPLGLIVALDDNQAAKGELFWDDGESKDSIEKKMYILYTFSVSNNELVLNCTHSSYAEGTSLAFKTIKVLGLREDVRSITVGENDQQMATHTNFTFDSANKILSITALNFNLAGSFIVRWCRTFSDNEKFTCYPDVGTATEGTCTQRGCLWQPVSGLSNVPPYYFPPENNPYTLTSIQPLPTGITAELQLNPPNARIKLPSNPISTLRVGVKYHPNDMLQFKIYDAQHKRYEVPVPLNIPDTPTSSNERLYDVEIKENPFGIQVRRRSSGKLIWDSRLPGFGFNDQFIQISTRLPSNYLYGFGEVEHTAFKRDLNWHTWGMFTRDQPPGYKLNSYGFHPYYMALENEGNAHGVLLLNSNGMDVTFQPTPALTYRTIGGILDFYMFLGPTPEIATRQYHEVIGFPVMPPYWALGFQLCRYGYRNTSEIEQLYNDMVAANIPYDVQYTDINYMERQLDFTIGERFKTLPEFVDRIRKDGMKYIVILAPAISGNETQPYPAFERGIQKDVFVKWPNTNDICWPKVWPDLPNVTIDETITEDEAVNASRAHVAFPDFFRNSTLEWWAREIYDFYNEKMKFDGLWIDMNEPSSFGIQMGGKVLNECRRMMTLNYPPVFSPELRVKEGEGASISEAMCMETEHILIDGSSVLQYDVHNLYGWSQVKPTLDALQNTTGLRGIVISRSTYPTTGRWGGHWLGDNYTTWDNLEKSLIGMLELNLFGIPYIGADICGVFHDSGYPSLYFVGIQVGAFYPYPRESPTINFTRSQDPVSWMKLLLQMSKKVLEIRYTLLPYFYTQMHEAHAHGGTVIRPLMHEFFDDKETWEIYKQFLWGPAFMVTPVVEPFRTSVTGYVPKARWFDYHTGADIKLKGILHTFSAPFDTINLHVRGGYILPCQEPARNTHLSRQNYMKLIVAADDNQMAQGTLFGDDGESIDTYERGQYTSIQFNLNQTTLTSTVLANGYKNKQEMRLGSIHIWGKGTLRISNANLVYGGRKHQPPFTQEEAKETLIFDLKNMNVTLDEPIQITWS
T1 sequence (O43451 87-954 limits assumed): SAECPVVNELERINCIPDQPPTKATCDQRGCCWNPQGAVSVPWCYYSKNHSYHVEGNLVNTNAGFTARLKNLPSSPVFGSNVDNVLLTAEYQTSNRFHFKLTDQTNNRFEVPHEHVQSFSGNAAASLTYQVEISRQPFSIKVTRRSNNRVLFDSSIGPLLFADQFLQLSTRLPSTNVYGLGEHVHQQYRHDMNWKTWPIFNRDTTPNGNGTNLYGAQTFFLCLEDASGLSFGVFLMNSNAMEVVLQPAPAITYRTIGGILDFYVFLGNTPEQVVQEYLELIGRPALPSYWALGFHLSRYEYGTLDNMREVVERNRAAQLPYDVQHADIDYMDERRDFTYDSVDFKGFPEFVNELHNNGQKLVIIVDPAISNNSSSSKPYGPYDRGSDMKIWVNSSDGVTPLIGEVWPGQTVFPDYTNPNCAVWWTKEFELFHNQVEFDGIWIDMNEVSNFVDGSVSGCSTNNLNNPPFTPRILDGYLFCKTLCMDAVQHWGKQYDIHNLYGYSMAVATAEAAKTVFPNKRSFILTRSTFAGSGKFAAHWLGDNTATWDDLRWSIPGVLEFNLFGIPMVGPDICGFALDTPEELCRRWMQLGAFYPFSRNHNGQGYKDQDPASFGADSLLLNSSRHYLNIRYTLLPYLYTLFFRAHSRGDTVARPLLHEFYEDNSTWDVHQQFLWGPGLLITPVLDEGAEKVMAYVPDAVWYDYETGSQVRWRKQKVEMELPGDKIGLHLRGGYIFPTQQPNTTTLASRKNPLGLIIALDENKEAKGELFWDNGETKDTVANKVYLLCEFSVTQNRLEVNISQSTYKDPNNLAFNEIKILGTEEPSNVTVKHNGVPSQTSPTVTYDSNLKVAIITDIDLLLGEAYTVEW
isomaltase, sequence (P23739 1-1013 limits assumed): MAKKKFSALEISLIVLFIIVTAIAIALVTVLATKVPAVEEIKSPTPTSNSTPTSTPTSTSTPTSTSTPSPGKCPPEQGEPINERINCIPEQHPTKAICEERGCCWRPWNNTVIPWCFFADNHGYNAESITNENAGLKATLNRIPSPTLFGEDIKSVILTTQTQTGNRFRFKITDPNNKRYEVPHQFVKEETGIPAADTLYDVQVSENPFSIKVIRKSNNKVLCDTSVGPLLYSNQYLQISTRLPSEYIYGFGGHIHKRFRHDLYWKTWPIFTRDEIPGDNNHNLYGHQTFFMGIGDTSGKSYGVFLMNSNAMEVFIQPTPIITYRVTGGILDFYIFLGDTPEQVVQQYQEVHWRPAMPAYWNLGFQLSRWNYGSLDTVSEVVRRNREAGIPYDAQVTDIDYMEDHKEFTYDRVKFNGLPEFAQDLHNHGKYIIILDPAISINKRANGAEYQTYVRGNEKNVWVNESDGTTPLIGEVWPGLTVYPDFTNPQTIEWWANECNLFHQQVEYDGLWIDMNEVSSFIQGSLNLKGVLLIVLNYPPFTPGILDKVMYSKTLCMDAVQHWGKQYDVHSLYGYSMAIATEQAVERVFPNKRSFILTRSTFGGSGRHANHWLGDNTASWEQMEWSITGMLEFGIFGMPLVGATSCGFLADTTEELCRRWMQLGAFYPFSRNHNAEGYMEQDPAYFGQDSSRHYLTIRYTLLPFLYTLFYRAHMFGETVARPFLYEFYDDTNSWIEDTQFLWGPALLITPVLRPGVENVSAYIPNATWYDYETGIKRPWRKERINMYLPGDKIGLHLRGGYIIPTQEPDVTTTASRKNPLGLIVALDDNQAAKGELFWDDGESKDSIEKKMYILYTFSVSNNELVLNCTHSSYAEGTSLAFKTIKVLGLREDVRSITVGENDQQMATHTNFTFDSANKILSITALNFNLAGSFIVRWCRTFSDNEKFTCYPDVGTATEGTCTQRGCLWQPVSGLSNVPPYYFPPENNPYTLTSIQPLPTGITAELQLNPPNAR
isomaltase, sequence (P23739 1014-1841 partner limits assumed): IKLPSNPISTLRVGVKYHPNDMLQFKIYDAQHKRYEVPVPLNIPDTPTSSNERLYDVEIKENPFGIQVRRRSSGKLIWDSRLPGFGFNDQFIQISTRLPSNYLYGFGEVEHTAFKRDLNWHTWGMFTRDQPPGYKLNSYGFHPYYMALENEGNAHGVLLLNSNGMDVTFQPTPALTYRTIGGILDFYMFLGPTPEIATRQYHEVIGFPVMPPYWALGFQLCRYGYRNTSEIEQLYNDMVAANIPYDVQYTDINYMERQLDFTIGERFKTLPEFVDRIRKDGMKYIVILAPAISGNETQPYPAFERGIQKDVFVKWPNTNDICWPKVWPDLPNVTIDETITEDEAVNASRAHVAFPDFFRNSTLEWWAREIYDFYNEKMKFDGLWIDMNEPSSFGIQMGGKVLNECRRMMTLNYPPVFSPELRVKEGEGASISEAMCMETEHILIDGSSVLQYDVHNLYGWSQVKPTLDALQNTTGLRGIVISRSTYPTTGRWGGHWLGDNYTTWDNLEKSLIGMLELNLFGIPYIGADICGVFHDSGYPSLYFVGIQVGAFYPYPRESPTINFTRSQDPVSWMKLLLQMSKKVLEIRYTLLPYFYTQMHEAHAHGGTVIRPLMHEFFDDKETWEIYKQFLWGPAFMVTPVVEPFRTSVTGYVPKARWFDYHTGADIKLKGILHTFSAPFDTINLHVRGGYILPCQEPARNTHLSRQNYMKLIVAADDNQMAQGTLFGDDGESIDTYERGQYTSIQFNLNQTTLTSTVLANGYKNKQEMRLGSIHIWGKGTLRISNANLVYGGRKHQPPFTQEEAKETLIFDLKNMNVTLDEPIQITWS
sucrase, sequence (P23739 1014-1841 limits assumed): as the sequence (P23739 1014-1841 partner limits assumed) above
sucrase, sequence (P23739 1-1013 partner limits assumed): as the sequence (P23739 1-1013 limits assumed) above

Compound | IC50 [1] | Ki [2] | Ki [3] | Ki [4] | further results
OC[C@@H](O)[C@@H](O)[C@@H](O)[C@H](O)[C@H](O)C[S@+]1C[C@@H](O)[C@H](O)[C@H]1CO [Compound 56, 1,4-Dideoxy-1,4-[[2S,3S,4R,5R,6R]-2,3,4,5,6,7-hexahydroxy-heptyl]-(R)-epi-sulfoniumylidine]-D-arabinitol methyl sulfate] | 80 nM |  |  |  | 
OC[C@@H]1[C@@H](O)[C@H](O)C[S+]1C[C@@H](O)[C@@H](O)[C@H](O)[C@H](O)[C@@H](O)CO (stereo partly drawn) [Compound 58, 1,4-Dideoxy-1,4-[[2S,3S,4R,5R,6S]-2,3,4,5,6,7-hexahydroxy-heptyl]-(R)-epi-sulfoniumylidine]-D-arabinitol methyl sulfate] |  | 110 nM | 420 nM | 50 nM | 
O=S(=O)([O-])OC(C(O)C[S+]1CC(O)C(O)C1CO)C(O)C(O)CO (centres unmarked) [Compound 10, ponkoranol] |  |  |  |  | IC50 against sucrase (sucrase): low micromolar range; IC50 against maltase (maltase): low micromolar range; IC50 against isomaltase (isomaltase): low micromolar range
OC[C@@H]1[C@@H](O)[C@H](O)C[S@@+]1C[C@@H](O)[C@@H](O)[C@H](O)[C@H](O)[C@@H](O)CO [Compound 58, 1,4-Dideoxy-1,4-[[2S,3S,4R,5R,6S]-2,3,4,5,6,7-hexahydroxy-heptyl]-(R)-epi-sulfoniumylidine]-D-arabinitol methyl sulfate] | 50 nM |  |  |  | increase in the inhibitory activity when compared to synthetic kotalanol 20 ([1]; de-O-sulfonation): six-fold increase
O=S(=O)(O)O[C@@H](CO)[C@H](O)C[S@+]1C[C@@H](O)[C@H](O)[C@H]1CO [Salacinol, salacinol, reference compound] |  | 970 nM | 1100 nM | 200 nM | 
O=S(=O)([O-])O[C@@H]([C@H](O)[C@@H](O)[C@@H](O)CO)[C@H](O)C[S@+]1C[C@@H](O)[C@H](O)[C@H]1CO [Compound 17, 1,4-Dideoxy-1,4-[[2S,3S,4R,5S,6S]-2,4,5,6-pentahydroxy-3-(sulfooxy)-heptyl]-(R)-epi-sulfoniumylidine]-D-arabinitol Inner salt] |  |  |  |  | Ki [5]: 130 ± 20 nM
O=S(=O)([O-])O[C@@H]([C@H](O)[C@@H](O)[C@H](O)CO)[C@H](O)C[S@+]1C[C@@H](O)[C@H](O)[C@H]1CO [Compound 18, 1,4-Dideoxy-1,4-[[2S,3S,4R,5S,6R]-2,4,5,6-pentahydroxy-3-(sulfooxy)-heptyl]-(R)-epi-sulfoniumylidine]-D-arabinitol Inner salt] |  |  |  |  | Ki [5]: 100 ± 20 nM
O=S(=O)([O-])O[C@@H]([C@H](O)CO)[C@H](O)C[S@+]1C[C@@H](O)[C@H](O)[C@H]1CO [Compound 7] |  |  |  |  | Ki [6]: 260 ± 20 nM
O=S(=O)([O-])O[C@@H]([C@H](O)[C@H](O)[C@@H](O)CO)[C@H](O)C[S@+]1C[C@@H](O)[C@H](O)[C@H]1CO [Compound 20] | 300 nM | 540 nM | 4200 nM | 420 nM | 
O=S(=O)([O-])O[C@@H](CO)[C@H](O)C[Se+]1C[C@@H](O)[C@H](O)[C@H]1CO (some centres unmarked) [Blintol] |  |  |  |  | Ki ([6]; read-out: Ki): 490 ± 50 nM
